For orientation: IC50 means the concentration that inhibits the measured activity by half.

Experimental findings from patent US11066396B2 (priority 2016, dated 2021) are described below.

In one assay the target is HDAC5 (Homo sapiens (Human), UniProt Q9UQL6). The conditions noted are these: read-out: HDAC5 IC50.
In another assay the target is HDAC8 (Homo sapiens (Human), UniProt Q9BY41). The conditions noted are these: read-out: HDAC8 IC50.
The target of a further assay is HDAC1 (Homo sapiens (Human), UniProt Q13547). To be noted: read-out: HDAC1 IC50.
HDAC1, sequence (Q13547 whole entry): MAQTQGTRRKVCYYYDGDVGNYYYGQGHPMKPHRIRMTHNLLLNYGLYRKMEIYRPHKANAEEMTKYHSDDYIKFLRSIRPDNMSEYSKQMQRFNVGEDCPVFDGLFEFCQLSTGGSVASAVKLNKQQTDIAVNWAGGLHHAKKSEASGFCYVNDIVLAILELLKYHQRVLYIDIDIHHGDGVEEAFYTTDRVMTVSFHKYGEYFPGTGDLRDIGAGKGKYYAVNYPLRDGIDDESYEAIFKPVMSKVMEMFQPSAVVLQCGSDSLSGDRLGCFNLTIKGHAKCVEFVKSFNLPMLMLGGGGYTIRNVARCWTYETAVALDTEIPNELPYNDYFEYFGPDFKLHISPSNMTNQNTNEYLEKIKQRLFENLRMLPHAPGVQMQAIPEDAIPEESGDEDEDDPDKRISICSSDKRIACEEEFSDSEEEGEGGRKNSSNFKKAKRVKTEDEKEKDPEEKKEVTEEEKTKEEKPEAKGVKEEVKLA

HDAC8, sequence (Q9BY41 whole entry): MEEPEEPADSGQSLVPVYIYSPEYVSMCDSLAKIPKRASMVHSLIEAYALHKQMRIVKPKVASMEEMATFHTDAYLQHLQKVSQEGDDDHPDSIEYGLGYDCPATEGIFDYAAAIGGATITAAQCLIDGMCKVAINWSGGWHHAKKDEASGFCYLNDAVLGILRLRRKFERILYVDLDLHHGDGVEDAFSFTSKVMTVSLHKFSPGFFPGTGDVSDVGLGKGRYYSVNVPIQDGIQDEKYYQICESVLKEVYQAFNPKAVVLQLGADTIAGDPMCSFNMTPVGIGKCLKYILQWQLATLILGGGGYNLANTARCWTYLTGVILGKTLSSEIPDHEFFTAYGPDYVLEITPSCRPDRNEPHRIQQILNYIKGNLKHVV
HDAC5, sequence (Q9UQL6 656-1122): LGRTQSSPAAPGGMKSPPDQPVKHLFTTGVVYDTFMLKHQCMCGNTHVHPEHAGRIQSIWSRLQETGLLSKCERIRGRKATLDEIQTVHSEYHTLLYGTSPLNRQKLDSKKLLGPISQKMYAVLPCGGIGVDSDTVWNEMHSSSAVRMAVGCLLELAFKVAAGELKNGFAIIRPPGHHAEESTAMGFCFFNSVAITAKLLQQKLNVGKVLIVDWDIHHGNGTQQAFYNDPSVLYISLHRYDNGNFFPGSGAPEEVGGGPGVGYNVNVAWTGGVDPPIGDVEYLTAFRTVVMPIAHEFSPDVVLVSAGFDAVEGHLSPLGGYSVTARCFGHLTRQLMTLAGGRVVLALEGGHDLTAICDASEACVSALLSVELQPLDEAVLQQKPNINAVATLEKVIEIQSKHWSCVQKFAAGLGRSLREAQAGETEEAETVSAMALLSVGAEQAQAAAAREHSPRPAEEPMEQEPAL

Consider `O=C(CN1CCOCC1)NC(Cc1ccc(-c2noc(C(F)(F)F)n2)cn1)c1cccc(C(F)(F)F)c1` (racemic) [Example 485, 2-(morpholin-4-yl)-N-(2-{5-[5-(trifluoromethyl)-1,2,4-oxadiazol-3-yl]pyridin-2-yl}-1-[3-(trifluoromethyl)phenyl]ethyl)acetamide], for which the IC50 came to 1100 nM at HDAC5, 11000 nM at HDAC8 and 1100 nM at HDAC1.

As to `O=C(NC(Cc1ccc(-c2noc(C(F)(F)F)n2)cn1)c1cccc(C(F)(F)F)c1)c1cccnc1` (racemic) [Example 487, N-(2-{5-[5-(trifluoromethyl)-1,2,4-oxadiazol-3-yl]pyridin-2-yl}-1-[3-(trifluoromethyl)phenyl]ethyl)pyridine-3-carboxamide], the IC50 is 380 nM at HDAC5, 5300 nM at HDAC8 and 670 nM on HDAC1.

As to `O=C1COC[C@@H](c2ccccc2)N1c1ccc(-c2noc(C(F)(F)F)n2)c(F)c1` [Example 2, (R)-4-(3-Fluoro-4-(5-(trifluoromethyl)-1,2,4-oxadiazol-3-yl)phenyl)-5-phenylmorpholin-3-one], the IC50 amounted to 18 nM on HDAC5, 4600 nM on HDAC8 and 480 nM at HDAC1.

Turning to `Cc1noc([C@@H]2CCC(=O)N2c2ccc(-c3noc(C(F)(F)F)n3)c(F)c2F)n1` [Example 12, (S)-1-(2,3-Difluoro-4-(5-(trifluoromethyl)-1,2,4-oxadiazol-3-yl)phenyl)-5-(3-methyl-1,2,4-oxadiazol-5-yl)pyrrolidin-2-one], the values for the IC50 at HDAC5, on HDAC8 and at HDAC1 were 11 nM, 6000 nM and 2000 nM, respectively.

For `O=C1OC[C@@H](c2ccccc2)N1c1cc(F)c(-c2noc(C(F)(F)F)n2)cc1F` [Example 16, (R)-3-(2,5-Difluoro-4-(5-(trifluoromethyl)-1,2,4-oxadiazol-3-yl)phenyl)-4-phenyloxazolidin-2-one], the IC50 was found to be 19 nM on HDAC5, 6000 nM at HDAC8 and 1000 nM on HDAC1.

For the compound `O=C(C1CCS(=O)(=O)CC1)N(Cc1ccc(-c2noc(C(F)(F)F)n2)cc1)c1cccc(C(F)(F)F)c1` [Example 30, N-(4-(5-(Trifluoromethyl)-1,2,4-oxadiazol-3-yl)benzyl)-N-(3-(trifluoromethyl)phenyl)tetrahydro-2H-thiopyran-4-carboxamide 1,1-dioxide], the IC50 came out at 1200 nM at HDAC5, 4300 nM at HDAC8 and 1340 nM on HDAC1.

For the compound `O=C1CNCC(c2ccccc2)N1c1ccc(-c2noc(C(F)(F)F)n2)cc1` (stereo not drawn) [Example 39, 6-phenyl-1-(4-(5-(trifluoromethyl)-1,2,4-oxadiazol-3-yl)phenyl)piperazin-2-one], the IC50 is 25 nM on HDAC5, 1600 nM at HDAC8 and 550 nM on HDAC1.

As to `O=C1CCCC(c2ccccc2)N1c1ccc(-c2noc(C(F)(F)F)n2)cc1` (stereo not drawn) [Example 40, 6-phenyl-1-(4-(5-(trifluoromethyl)-1,2,4-oxadiazol-3-yl)phenyl)piperidin-2-one], the IC50 at HDAC5 came to 34 nM; on HDAC8, 800 nM; on HDAC1, 410 nM.

Regarding `O=C1CCC(c2ccccc2)N1c1cc(F)c(-c2noc(C(F)(F)F)n2)cc1F` (stereo not drawn) [Example 41, 1-(2,5-difluoro-4-(5-(trifluoromethyl)-1,2,4-oxadiazol-3-yl)phenyl)-5-phenylpyrrolidin-2-one], the IC50 at HDAC5 is 19 nM; at HDAC8, 6000 nM; at HDAC1, 610 nM.

As to `O=C1CCC(c2ccccc2)N1c1ccc(-c2noc(C(F)(F)F)n2)cc1F` (stereo not drawn) [Example 42, 1-(2-fluoro-4-(5-(trifluoromethyl)-1,2,4-oxadiazol-3-yl)phenyl)-5-phenylpyrrolidin-2-one], the IC50 was found to be 27 nM at HDAC5, 1400 nM on HDAC8 and 530 nM at HDAC1.

`O=C1CCC(c2ccccc2)N1c1ccc(-c2noc(C(F)(F)F)n2)c(F)c1` (stereo not drawn) [Example 43, 1-(3-fluoro-4-(5-(trifluoromethyl)-1,2,4-oxadiazol-3-yl)phenyl)-5-phenylpyrrolidin-2-one]: the IC50 on HDAC5 is 74 nM; on HDAC8 it was 3600 nM; at HDAC1, 1900 nM.
